Key:
Type in all cases: cell-based, Human
HepG2 cells = assay: Palmitate-induced TG accumulation in HepG2 cells, Oil-Red-O staining with isopropyl alcohol extraction
Protocol: (§1) Human liver cells, that is, HepG2 cells (ATCC, Manassas, Va., USA) were cultured in high-glucose Dulbecco's modified eagle medium (DMEM, Invitrogen, Carlsbad, Calif., USA), which includes 10% fetal bovine serum (FBS, Invitrogen), 100 units/mL of penicillin and 100 μg/ml of streptomycin. The cells were incubated at 37° C. under a condition of 5% CO2.
(§2) Mycoplasma was not detected in HepG2 cells. PDX (Cayman Chemical, Ann Arbor, Mich., USA) was dissolved in ethanol. Sodium palmitate (Sigma, St. Louis, Mo., USA) was mixed with 2% BSA (fatty acid free level; Sigma) in DMEM. […] In all experiments, the cells were treated with palmitate-BSA and PDX for 24 hours, while 2% BSA-ethanol was used as a control group.
HepG2 cells and a cut section of the liver in a mouse were stained by Oil-Red-O staining method, in order to determine cellular triglyceride such as triglyceride, that is, TG. The liver cells were fixed with 10% formalin for 40 minutes, and then stained with Oil-Red-O solution (Sigma) at 37° C. for 1 hour. A content of Oil-Red-O stained TG was quantified by adding isopropanol to each of the samples. The mixture was gently stirred at 25° C. for 8 minutes. Lastly, 100 μl of isopropanol-extracted sample was analyzed by a spectrophotometer at 510 nm.
In the presence of 200 μM palmitate and PDX (0 to 2 μm), HepG2 cells were subjected to Oil-Red-O staining for 24 hours, while TG accumulation was quantified by isopropyl alcohol extraction.
Further, the present inventors have executed Oil-Red-O staining with respect to palmitate-treated HepG2 cells for 24 hours. TG accumulation was quantified by extraction using isopropyl alcohol.

IRE-1, eIF2α and CHOP = assay: Western-blot assay of phosphorylation and expression of ER stress markers in palmitate-treated HepG2 cells; details: for expression of ER stress markers IRE-1, eIF2α and CHOP: FIG. 2A
Protocol: Human liver cells, that is, HepG2 cells (ATCC, Manassas, Va., USA) were cultured in high-glucose Dulbecco's modified eagle medium (DMEM, Invitrogen, Carlsbad, Calif., USA), which includes 10% fetal bovine serum (FBS, Invitrogen), 100 units/mL of penicillin and 100 μg/ml of streptomycin. The cells were incubated at 37° C. under a condition of 5% CO2. Mycoplasma was not detected in HepG2 cells. PDX (Cayman Chemical, Ann Arbor, Mich., USA) was dissolved in ethanol. Sodium palmitate (Sigma, St. Louis, Mo., USA) was mixed with 2% BSA (fatty acid free level; Sigma) in DMEM. […] In all experiments, the cells were treated with palmitate-BSA and PDX for 24 hours, while 2% BSA-ethanol was used as a control group. After collecting HepG2 cells, protein was extracted from the cells with a buffer (PRO-PREF; Intron Biotechnology, Seoul, Korea) at 4° C. for 1 hour. A protein sample (35 μg) was applied to 12% SDS-PAGE, transferred to a nitrocellulose film (Amersham Bioscience, Westborough, Mass., USA), detected with a primary antibody, followed by probing with a secondary antibody and another secondary antibody conjugated with horseradish […] (Santa Cruz Biotechnology). The sample was detected by ECL kit. Under 70% comfluency, 0 to 20 nmol/L […] (si)RNA oligonucleotide to ORP150 purchased from Santa Cruz Biotechnology was transfected to inhibit gene expression. Scramble siRNA was used as a control group. 2 or 4 μg of pCMV3-ORP150 (Sino Biological, Beijing, China) was transiently transfected, leading to over-expression of ORP150. pCMV3 empty-vector was used as a control group. According to instruction of the manufacturer, transfection was executed using lipofectamine 2000 (Invitrogen).

SREBP1, FAS and SCD1 = assay: Western-blot assay of adipogenesis-related genes in palmitate-treated HepG2 cells
Protocol: as §1, §2
After collecting HepG2 cells, protein was extracted from the cells with a buffer (PRO-PREF; Intron Biotechnology, Seoul, Korea) at 4° C. for 1 hour. A protein sample (35 μg) was applied to 12% SDS-PAGE, transferred to a nitrocellulose film (Amersham Bioscience, Westborough, Mass., USA), detected with a primary antibody, followed by probing with a secondary antibody and another secondary antibody conjugated with horseradish […] (Santa Cruz Biotechnology). The sample was detected by ECL kit.
Under 70% comfluency, 0 to 20 nmol/L […] (si)RNA oligonucleotide to ORP150 purchased from Santa Cruz Biotechnology was transfected to inhibit gene expression. Scramble siRNA was used as a control group. 2 or 4 μg of pCMV3-ORP150 (Sino Biological, Beijing, China) was transiently transfected, leading to over-expression of ORP150. pCMV3 empty-vector was used as a control group. According to instruction of the manufacturer, transfection was executed using lipofectamine 2000 (Invitrogen).
The present inventors have executed western-blot assay of SREBP1 expression in HepG2 cells that were treated with 200 μM palmitate and/or with 0 to 4 μg of ORP150 for 24 hours.

ORP150 = assay: Western-blot assay of ORP150 in HepG2 cells; details: 2 μm PDX, 24 hours, FIG. 3A
Protocol: After collecting HepG2 cells, protein was extracted from the cells with a buffer (PRO-PREF; Intron Biotechnology, Seoul, Korea) at 4° C. for 1 hour. A protein sample (35 μg) was applied to 12% SDS-PAGE, transferred to a nitrocellulose film (Amersham Bioscience, Westborough, Mass., USA), detected with a primary antibody, followed by probing with a secondary antibody and another secondary antibody conjugated with horseradish […] (Santa Cruz Biotechnology). The sample was detected by ECL kit. Under 70% comfluency, 0 to 20 nmol/L […] (si)RNA oligonucleotide to ORP150 purchased from Santa Cruz Biotechnology was transfected to inhibit gene expression. Scramble siRNA was used as a control group. 2 or 4 μg of pCMV3-ORP150 (Sino Biological, Beijing, China) was transiently transfected, leading to over-expression of ORP150. pCMV3 empty-vector was used as a control group. According to instruction of the manufacturer, transfection was executed using lipofectamine 2000 (Invitrogen). The present inventors have executed western-blot assay of ORP150 in HepG2 cells transfected with scramble siRNA or siFOXO1 in the presence of 2 μm of PDX for 24 hours.

CC/C=C\C[C@H](O)/C=C/C=C\C=C\[C@@H](O)C/C=C\C/C=C\CCC(=O)O [PDX, 10S,17S-dihydroxy-docosa-4Z,7Z,11E,13Z,15E,19Z-hexaeonic acid]
palmitate-induced TG accumulation (HepG2 cells; 200 μM palmitate, PDX 0 to 2 μm, 24 hours, FIG. 1A): inhibited | TG accumulation inhibitory effects of PDX (HepG2 cells; palmitate, silencing ORP150, FIG. 2B): reduced | palmitate-induced TG accumulation (HepG2 cells; scramble siRNA, PDX administration, FIG. 2B): inhibited | expression of ER stress markers IRE-1, eIF2α and CHOP (IRE-1, eIF2α and CHOP; palmitate + PDX + siORP150 (ORP150 silencing)): increased again | phosphorylation and expression of ER stress markers IRE-1, eIF2α and CHOP (IRE-1, eIF2α and CHOP; palmitate-induced, 24 hours, FIG. 1C): significantly decreased depending upon a dose of PDX | expression of ER stress markers IRE-1, eIF2α and CHOP (IRE-1, eIF2α and CHOP; scramble siRNA + palmitate + PDX): reduced | expression of adipogenesis-related genes including SREBP1, FAS and SCD1 (SREBP1, FAS and SCD1; 24 hours, FIG. 1B): inhibited | expression of adipogenesis-related genes SREBP1, FAS and SCD1 (SREBP1, FAS and SCD1; scramble siRNA, PDX administration, FIG. 2C): inhibited | PDX effects of inhibiting the expression of adipogenesis-related genes (SREBP1, FAS and SCD1; silencing ORP150, FIG. 2C): significantly reduced | PDX effects of promoting ORP150 expression (ORP150; HepG2 cells transfected with FOXO1 siRNA): inhibited | ORP150 expression level (ORP150; HepG2 cells, scramble siRNA): increased
